Test results: patent publication US10898548B2, “Modulators of protein tyrosine phosphatase and uses thereof” (LEUVAS THERAPEUTICS, priority 2015, dated 2021)

Test system: protein tyrosine phosphorylation in fMLP-stimulated monocytes
Assay: Kinexus antibody microarray of tyrosine phosphorylation in fMLP-stimulated monocytes
Type: cell-based, human
Parameters: key to Functional effect of P1-WD on BTK / Functional effect of P1-WD on CDK2 / Functional effect of P1-WD on CTTN / Functional effect of P1-WD on DAB1 / Functional effect of P1-WD on DOK2 / Functional effect of P1-WD on ERBB2 / Functional effect of P1-WD on GRIN2B / Functional effect of P1-WD on ITGB1 / Functional effect of P1-WD on JAK2 / Functional effect of P1-WD on KDR / Functional effect of P1-WD on KIT / Functional effect of P1-WD on LIMK1 / Functional effect of P1-WD on MET / Functional effect of P1-WD on PDGFRA / Functional effect of P1-WD on PDGFRB / Functional effect of P1-WD on PRKCD / Functional effect of P1-WD on SHC1 / Functional effect of P1-WD on STAT1 / Functional effect of P1-WD on STAT2 / Functional effect of P1-WD on STAT3 / Functional effect of P1-WD on STAT5A / Functional effect of P1-WD on VCL / Functional effect of P1-WD on ABL1 / Functional effect of P1-WD on BLNK / Functional effect of P1-WD on BMX: inhibition (IN); activation (ACT)
Source text: To identify PTPRG targets in the context of fMLP signaling, we employed a high throughput antibody array technology using the P1-WD approach and fMLP-potentiated signaling networks, since this directly correlates with integrin triggering and mediated rapid adhesion. To analyze the phosphoproteome we used the comprehensive high throughput service developed by Kinexus, CA, USA. The Kinexus antibody microarray includes about 500 pan-specific and over 350 phosphosite-specific antibodies per chip, in duplicate spots. The analysis covers a variety of selected cell signaling proteins regulating cell proliferation, stress, apoptosis, adhesion, secretion, motility and other biological processes. Monocytes were treated with 50 μM P1 or P1-WD peptides for 60 min. at 37° C. and then stimulated with 50 nM fMLP for 3 min. Cells were immediately lysed according to Kinexus protocol and the samples were sent to Kinexus for microarray analysis. Data were normalized to control cells and statistically filtered by Kinexus to identify the most significant best hits. The analysis was, then, focused on phosphotyrosine-specific antibodies. Network inference analysis was performed within Cytoscape 3.1 bioinformatics environment by using previously established interatomic datasets compiled from public data-bases. The compiled protein-protein interatomic data-set was manually curated to remove self-loops and duplicate edges; different protein IDs were normalized to HGNC standard IDs. The set of 31 identified proteins whose tyrosine phosphorylation status was affected by PTPRG activity was used as bioinformatics probe allowing sub-network reconstruction. Directed node centrality indexes were computed with the Cytoscape plug-in Centiscape 2.1 (Scardoni G, et al., 2009, Bioinformatics 25: 2857-2859). Network modular decomposition was executed with the Cytoscape plug-in MCODE (Bader G, et al., 2003, BMC Bioinformatics 4: 2). Literature data mining was performed by multiple data base interrogation, mainly based on Phosphosite, PhosphoELM, PhosphoNet and KEA.
Data analysis identified 31 molecules whose phosphorylation was modified in a statistically significant manner (Table 9). Values in % columns are percentage increase or decrease of protein tyrosine phosphorylation upon fMLP-triggering in P1-WD-treated vs P1-control treated monocytes. For some proteins (For some proteins (EGFR, INSR, KDR, KIT, PDGFRA, PTK2, PXN, SRC and ZAP70) multiple phosphotyrosine residues are detected. From left to right, columns are HGNC protein symbols (in alphabetic order), phosphosites (p-Sites), changes of phosphorylation (induced by P1-WD) and the putative functional effect, inferred from literature data-mining. EGFR and PTK2 are highlighted in gray since the functional effect could not be unambiguously inferred. The functional effect of P1-WD in the far right column indicates either inhibition (IN) or activation (ACT).

[1] = P1-WD vs P1, 50 μM 60 min, 50 nM fMLP 3 min
[2] = putative, inferred from literature data-mining
[3] = putative, inferred from literature data-mining, per p-Site

## P1-WD: fusion Trojan peptide SEQ ID 3: Penetratin, glycine, PTPRG wedge domain aa 831-856; RQIKIWFQNRRMKWKKGKQFVKHIGELYSNNQHGFSEDFEEVQ (listed as Homo sapiens)
[1]
  change of ABL1 Y412 tyrosine phosphorylation: −40%
  change of BLNK Y84 tyrosine phosphorylation: 19%
  change of BMX Y40 tyrosine phosphorylation: −7%
  change of BTK Y223 tyrosine phosphorylation: −58%
  change of CDK2 Y15 tyrosine phosphorylation: 282%
  change of CTTN Y470 tyrosine phosphorylation: 21%
  change of DAB1 Y198 tyrosine phosphorylation: −34%
  change of DOK2 Y142 tyrosine phosphorylation: 9%
  change of EGFR Y1068 tyrosine phosphorylation: −13%
  change of EGFR Y1148 tyrosine phosphorylation: −16%
  change of EGFR Y1173 tyrosine phosphorylation: 68%
  change of ERBB2 Y1248 tyrosine phosphorylation: 34%
  change of GRIN2B Y1474 tyrosine phosphorylation: 29%
  change of INSR Y999 tyrosine phosphorylation: 58%
  change of INSR Y1189/Y1190 tyrosine phosphorylation: 27%
  change of ITGB1 Y783 tyrosine phosphorylation: −11%
  change of JAK2 Y1007/Y1008 tyrosine phosphorylation: −33%
  change of KDR Y1054 + Y1059 tyrosine phosphorylation: 22%
  change of KDR Y1054 tyrosine phosphorylation: −37%
  change of KIT Y703 tyrosine phosphorylation: −60%
  change of KIT Y730 tyrosine phosphorylation: −47%
  change of LIMK1 Y507 tyrosine phosphorylation: −10%
  change of MET Y1003 tyrosine phosphorylation: −47%
  change of PDGFRA Y742 tyrosine phosphorylation: 133%
  change of PDGFRA Y754 tyrosine phosphorylation: 86%
  change of PDGFRB Y716 tyrosine phosphorylation: −36%
  change of PRKCD Y313 tyrosine phosphorylation: 189%
  change of PTK2 Y397 tyrosine phosphorylation: 30%
  change of PTK2 Y576 tyrosine phosphorylation: 65%
  change of PTK2 Y577 tyrosine phosphorylation: −60%
  change of PTK2 Y861 tyrosine phosphorylation: −11%
  change of PXN Y31 tyrosine phosphorylation: 19%
  change of PXN Y118 tyrosine phosphorylation: 144%
  change of SHC1 Y349 + Y350 tyrosine phosphorylation: −10%
  change of SRC Y419 tyrosine phosphorylation: −6%
  change of SRC Y530 tyrosine phosphorylation: 94%
  change of STAT1 Y701 tyrosine phosphorylation: 38%
  change of STAT2 Y690 tyrosine phosphorylation: 61%
  change of STAT3 Y705 tyrosine phosphorylation: 182%
  change of STAT5A Y694 tyrosine phosphorylation: 50%
  change of VCL Y821 tyrosine phosphorylation: −20%
  change of ZAP70 Y292 tyrosine phosphorylation: −46%
  change of ZAP70 Y315 + Y319 tyrosine phosphorylation: 12%
[2]
  Functional effect of P1-WD on ABL1: IN
  Functional effect of P1-WD on BLNK: ACT
  Functional effect of P1-WD on BMX: IN
  Functional effect of P1-WD on BTK: IN
  Functional effect of P1-WD on CDK2: IN
  Functional effect of P1-WD on CTTN: IN
  Functional effect of P1-WD on DAB1: IN
  Functional effect of P1-WD on DOK2: ACT
  Functional effect of P1-WD on ERBB2: ACT
  Functional effect of P1-WD on GRIN2B: ACT
  Functional effect of P1-WD on ITGB1: IN
  Functional effect of P1-WD on JAK2: IN
  Functional effect of P1-WD on KDR: IN
  Functional effect of P1-WD on KIT: IN
  Functional effect of P1-WD on LIMK1: IN
  Functional effect of P1-WD on MET: IN
  Functional effect of P1-WD on PDGFRA: ACT
  Functional effect of P1-WD on PDGFRB: IN
  Functional effect of P1-WD on PRKCD: ACT
  Functional effect of P1-WD on SHC1: IN
  Functional effect of P1-WD on STAT1: ACT
  Functional effect of P1-WD on STAT2: ACT
  Functional effect of P1-WD on STAT3: ACT
  Functional effect of P1-WD on STAT5A: ACT
  Functional effect of P1-WD on VCL: IN
[3]
  Functional effect of P1-WD on INSR: ACT/ACT
  Functional effect of P1-WD on PXN: ACT/ACT
  Functional effect of P1-WD on SRC: IN/IN
  Functional effect of P1-WD on ZAP70: ACT/ACT
putative, inferred from literature data-mining, per p-Site Y397/Y577/Y576/Y861, cell wraps to r32 (/IN)
  Functional effect of P1-WD on PTK2: ACT/IN/ACT
putative, inferred from literature data-mining, per p-Site Y1068/Y1148/Y1173
  Functional effect of P1-WD on EGFR: IN/IN/ACT
